Data: US20230381176A1, “A PHARMACEUTICAL COMPOSITION AND USE THEREOF FOR TREATMENT OF CANCER” (Ascentage Pharma (Suzhou) Co., Ltd., priority 2020, published 2023)

System: PTK2 high ovarian PDX OV2423
Assay: PTK2 high ovarian PDX model OV2423, Compound 5 and carboplatin and/or paclitaxel
Format: in vivo, mouse
Description: A subcutaneous xenograft tumor model of human tumor immunodeficient mice was established by cell inoculation: tumor cells in logarithmic growth phase were collected, counted, resuspended in 1×PBS, and the cell suspension concentration was adjusted to 2.5-5 ×10^7/mL. The tumor cells were inoculated subcutaneously in the right side of immunodeficient mice with a 1 mL syringe ([…]), 5-10×10^6/0.2 mL/mouse. All animal experiments were strictly in accordance with the specifications for the use and management of experimental animals in GenePharma Co., Ltd. and Suzhou Ascentage Pharma Co., Ltd. The calculation of relevant parameters refers to the Chinese NMPA “Guidelines for Non-Clinical Research Techniques of Cytotoxic Anti-tumor Drugs”.
Animal body weight and tumor size were measured twice weekly during the experiment. The state of the animal and the presence or absence of death were observed every day. The growth of tumor and the effects of treatment on normal behavior of animals were monitored routinely, specifically involving experimental animal activity, feeding and drinking, weight gain or loss, eyes, clothing hair and other abnormalities. The deaths and clinical symptoms observed during the experiment were recorded in the raw data. All operations for administration and measurement of mouse body weight and tumor volume were performed in a clean bench. According to the requirements of the experimental protocol, after the end of the last administration, plasma and tumor tissues were collected, weighed and photographed. The plasma and tumor samples were frozen at −80° C. for ready-to-use.
Tumor volume (TV) is calculated as: TV=a×b^2/2, wherein a and b represent the length and width of the tumor to be measured, respectively.
The relative tumor volume (RTV) is calculated as: RTV=Vt/V1, wherein V1 is the tumor volume at the start of grouping and administration, and Vt is the tumor volume measured on the t day after administration.
Change of body weight (%)=(measured body weight−body weight at the start of grouping)/body weight at the start of grouping×100%.
A dose of drug is considered to be severely toxic if the body weight of mouse is reduced by more than 20% or the number of drug-related deaths exceeds 20%.
According to the description by Clarke R., Issues in experimental design and endpoint analysis in the study of experimental cytotoxic agents in vivo in breast cancer and other models [J]. Breast Cancer Research & Treatment, 1997, 46(2-3): 255-278, synergy analysis was evaluated using the following formula: synergy factor=((A/C)×(B/C))/(AB/C); A=RTV value of drug A alone group; B=RTV value of drug B alone group; C=RTV value of the solvent control group, and AB=RTV value of the A and B combination group.
Use of mRECIST (Gao et al., 2015) measured tumor responses included stable disease (SD), partial tumor regression (PR), and complete regression (CR), determined by comparing tumor volume change at day t to its baseline: tumor volume change (%)=(Vt−V1)/V1. The BestResponse was the minimum value of tumor volume change (%) for t≥10. For each time t, the average of tumor volume changes from t=1 to t was also calculated. BestAvgResponse was defined as the minimum value of this average for t≥10. The criteria for response (mRECIST) were adapted from RECIST criteria (Gao et al., 2015; Therasse et al., 2000) and defined as follows: mCR, BestResponse<−95% and BestAvg Response<−40%; mPR, BestResponse<−50% and BestAvgResponse<−20%; mSD, BestResponse<35% and BestAvgResponse<30%; mPD, not otherwise categorized. SD, PR, and CR were considered responders and used to calculate response rate (%). […] Body weight of animals were monitored simultaneously. The change in body weight was calculated based on the animal weight of the first day of dosing (day 1). Tumor volume and changes in body weight (%) were represented as the mean±standard error of the mean (SEM).

[1] = Compound 5 50 mg/kg orally once per day, carboplatin 30 mg/kg i.p. once a week, paclitaxel 10 mg/kg i.v. once a week, 28 days

Structure (SMILES): Cc1cc(Nc2ncc(Cl)c(Nc3ccccc3S(=O)(=O)C(C)C)n2)c(OC(C)C)cc1C1=CCN(C2CCOCC2)CC1 [Compound 5, 5-chloro-N^2-(2-isopropoxy-5-methyl-4-(1-(tetrahydro-2H-pyran-4-yl)-1,2,3,6-tetrahydropyridin-4-yl)phenyl)-N^4-(2-(isopropylsulfonyl)phenyl)pyrimidine-2,4-diamine]
- RTV on Day 28 after administration (mean ± standard error) [1]: 14.83 ± 3.19
- T/C on Day 28 after administration (%) [1]: 78.97%
- mRECIST (animals per class): 2/2 PD
- antitumor activity (conclusion in words) (mouse, in vivo): minor antitumor activity
